For one data set, the target named is human NK1 receptor (Homo sapiens (Human), UniProt P25103). The data set can be described thus: Affinity for human NK1 receptor (125I-substance P receptor binding test). As to conditions: membrane fraction of human NK1 receptor-expressing 293T cells; read-out: IC50 (concentration required for 50% inhibition of 125I-substance P binding). How it is done:
Affinity for Human NK1 Receptor
PCR was performed using human adult normal tissue-derived brain cDNA (BioChain) as the template, with the forward primer of SEQ ID NO:1 and the reverse primer of SEQ ID NO:2, using a PCR enzyme, PrimeSTAR Max DNA Polymerase or PrimeSTAR GXL DNA Polymerase (registered trademark, Takara Bio). The amplified product was inserted into a plasmid (pCR-BluntII-TOPO (registered trademark), Life Technologies) using Zero Blunt PCR Cloning Kit (registered trademark, Life Technologies). By a general method, Escherichia coli (One Shot TOP10 competent cells, Life Technologies) was transformed by the plasmid into which the amplified product had been inserted. The Escherichia coli cells were cultured on an LB agar medium containing 50 μg/mL kanamycin for a day. After the culture, a colony was selected and cultured in an LB medium containing 50 μg/mL of kanamycin. After the culture, the plasmid was purified using Quantum Prep Plasmid Miniprep Kit (Bio-Rad). The plasmid was double digested for about two hours using restriction enzymes, XhoI and HindIII (New England Biolabs). Then, electrophoresis using 1% agarose gel was performed, and the fragment that was cleaved was collected and purified using TaKaRa RICOCHIP (Takara Bio). […]

In a further data set the target is NK1 receptor (Meriones unguiculatus (Mongolian jird) (Gerbillus unguiculatus), UniProt Q5DUB1). The data set can be described thus: Effect on GR73632-induced foot-tapping. The format is in vivo. As to conditions: male gerbil, 0.1 mg/kg iv, GR73632 icv after four hours. On the procedure: The test compound solution was prepared by dissolving the test compound in a vehicle (a mixture of 50% N,N-dimethylacetamide (Wako Pure Chemical Industries), 30% propylene glycol (Wako Pure Chemical Industries), 4% 2-hydroxypropyl-[…] (Wako Pure Chemical Industries) and 16% distilled water).
Sequence of NK1 receptor (Q5DUB1 whole entry): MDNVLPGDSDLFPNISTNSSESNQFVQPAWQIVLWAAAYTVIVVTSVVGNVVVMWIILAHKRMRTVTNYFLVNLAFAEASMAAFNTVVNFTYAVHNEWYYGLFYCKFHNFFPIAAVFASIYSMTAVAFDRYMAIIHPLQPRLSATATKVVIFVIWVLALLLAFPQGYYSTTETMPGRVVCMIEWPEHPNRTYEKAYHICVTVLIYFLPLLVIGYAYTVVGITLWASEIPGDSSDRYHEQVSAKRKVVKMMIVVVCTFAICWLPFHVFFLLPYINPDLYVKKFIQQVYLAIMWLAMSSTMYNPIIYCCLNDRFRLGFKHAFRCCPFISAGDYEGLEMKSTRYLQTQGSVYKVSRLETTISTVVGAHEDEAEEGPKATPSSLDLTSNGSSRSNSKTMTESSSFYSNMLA
A male gerbil (Japan SLC) was anesthetized with isoflurane, and 0.1 mg/kg of a test compound was administered from the jugular vein. After four hours, GR73632 (5 pmol/5 μl saline), which is an NK1 receptor agonist, was administered into the cerebral ventricle at the part 1 mm lateral to and 4.5 mm below the bregma in the head, under anesthesia with isoflurane. After the administration, the gerbil was moved to an observation cage, and the foot-tapping period during 30 minutes after the recovery of the righting reflex was measured. The foot-tapping inhibition rate (%) of each test compound was calculated by the following equation. Foot-tapping inhibition rate (%)={1−(Foot-tapping period when test compound was administered)/(Foot-tapping period when solvent was administered)}×100 (2) Measurement of Drug Concentrations

Data set [1] in a line: Ferret pharmacokinetic test. The format is in vivo. The conditions noted are these: male ferret, plasma. How it is done:
Ferret Pharmacokinetic Test
The test compound solution for intravenous administration was prepared by dissolving the test compound in a vehicle (a mixture of 50% N,N-dimethylacetamide (Wako Pure Chemical Industries), 30% propylene glycol (Wako Pure Chemical Industries), 4% 2-hydroxypropyl-β-cyclodextrin (Wako Pure Chemical Industries) and 16% distilled water). As an oral administration solution, the suspension (0.5% methylcelluose) was used.
Under anesthesia with isoflurane, 0.1 mg/kg of the test compound was intravenously administered to a male ferret (Marshall BioResources Japan) from the femoral vein. In the case of oral administration, 1 mg/kg of the test compound was orally administered to an awake animal. After the administration of the test compound, blood samples were taken sequentially from the brachial cephalic vein up to 7 days after the administration. Through a quantitative analysis using liquid chromatography-mass spectrometry (LC/MS), the concentrations of the test compound in the plasma were measured.
In the tables, Ex. No. means the Example number. t1/2, CLtot and Vss are the half-life, the total body clearance and the steady-state volume of distribution, based on the plasma concentrations in the case of intravenous administration, respectively. Cmax, AUC and BA are the maximum plasma test compound concentration, the area under the plasma test compound concentration-time curve within 7 days after the administration and the bioavailability, in the case of oral administration, respectively.

Data set [2] concerns cisplatin-induced acute and delayed emetic response. Put plainly: Effect on cisplatin-induced acute and delayed emetic response. As to conditions: male ferret, 0.01 or 0.1 mg/kg iv, cisplatin 5 mg/kg ip. It is filed as in vivo. How it is done:
The vertical axes show the number of retching and vomiting (Retches+Vomits) (the mean+standard error of 3 examples of control group, the mean+standard error of 3 examples of the group intravenously administered with 0.01 mg/kg, and the mean+standard error of 3 examples of the group intravenously administered with 0.1 mg/kg).
Effect on Cisplatin-Induced Acute and Delayed Emetic Response
The test compound solution was prepared by dissolving the test compound in a vehicle (a mixture of 50% N,N-dimethylacetamide (Wako Pure Chemical Industries), 30% propylene glycol (Wako Pure Chemical Industries), 4% 2-hydroxypropyl-β-cyclodextrin (Wako Pure Chemical Industries) and 16% distilled water). The vehicle only was administered to the control group.
Under anesthesia with isoflurane, 0.01 mg/kg or 0.1 mg/kg of the test compound was intravenously administered to a male ferret (Marshall BioResources Japan) from the jugular vein. Cisplatin in saline, which was heated to 40-50° C., was intraperitoneally administered at 5 mg/kg one hour after the drug administration.

One may read the clearance as a measure of how efficiently the substance is removed, as volume per time. Broadly, the bioavailability is the share of a dose that reaches the circulation, judged against a reference dose that is usually intravenous.

Sequence of human NK1 receptor (P25103 whole entry): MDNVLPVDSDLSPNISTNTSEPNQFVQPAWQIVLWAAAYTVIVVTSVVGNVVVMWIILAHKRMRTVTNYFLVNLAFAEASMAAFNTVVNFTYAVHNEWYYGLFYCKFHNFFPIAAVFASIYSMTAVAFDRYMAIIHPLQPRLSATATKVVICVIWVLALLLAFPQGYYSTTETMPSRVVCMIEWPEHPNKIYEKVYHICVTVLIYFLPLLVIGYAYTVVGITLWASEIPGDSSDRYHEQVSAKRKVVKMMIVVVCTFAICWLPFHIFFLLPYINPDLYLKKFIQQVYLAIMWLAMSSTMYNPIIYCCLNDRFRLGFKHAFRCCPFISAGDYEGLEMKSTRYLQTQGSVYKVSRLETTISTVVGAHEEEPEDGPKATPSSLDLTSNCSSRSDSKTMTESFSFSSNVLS

On to `Cc1cc(F)ccc1-c1cc(C2CCC(CCC(=O)O)CC2)ncc1N(C)C(=O)C(C)(C)c1cc(C(F)(F)F)cc(C(F)(F)F)c1` (centres unmarked) [Example 2, 3-{4-[5-{[2-(3,5-Bistrifluoromethylphenyl)-2-methylpropionyl]methylamino}-4-(4-fluoro-2-methylphenyl)pyridin-2-yl]cyclohexyl}propionic acid], for which the IC50 on human NK1 receptor is 1.78 nM. At NK1 receptor, the “Inhibition (foot-tapping inhibition rate)” value worked out at 100%.
As to `Cc1cc(F)ccc1-c1cc([C@H]2CC[C@H](CC(=O)O)CC2)ncc1N(C)C(=O)C(C)(C)c1cc(C(F)(F)F)cc(C(F)(F)F)c1` [Example 13, trans-{4-[5-{[2-(3,5-Bistrifluoromethylphenyl)-2-methylpropionyl]methylamino}-4-(4-fluoro-2-methylphenyl)pyridin-2-yl]cyclohexyl}acetic acid], in data set [1] (0.1 mg/kg intravenous, read-out: CL tot (total body clearance)), the clearance is 0.13 mL/min/kg. In data set [1] (0.1 mg/kg intravenous, read-out: Vss (steady-state volume of distribution)), the Vd was determined as 0.401 L/kg. In addition, in data set [1] (0.1 mg/kg intravenous, read-out: t1/2 (half-life)), the half-life was 41.5 h. For the same compound, the AUC in data set [1] (1 mg/kg oral, read-out: AUC (area under the plasma concentration-time curve within 7 days) (converted)) was 88.2 µg·h/mL. Moreover, in data set [1] (1 mg/kg oral, read-out: BA (bioavailability)), the bioavailability was found to be 66%. Moreover, the Cmax in data set [1] (1 mg/kg oral, read-out: Cmax (maximum plasma test compound concentration)) was 1.26 µg/mL. Besides, the “number of retching and vomiting, delayed phase” value in data set [2] (24 hours to 72 hours) was “inhibition of the number of retching and vomiting was observed”. Further, the “number of retching and vomiting, acute phase” value in data set [2] (up to 24 hours) is “inhibition of the number of retching and vomiting was observed”. Moreover, the “Inhibition (foot-tapping inhibition rate)” value on NK1 receptor came out at 100%.
